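Interpolation was linear, between the two tested concentrations surrounding the appropriate level; five concentrations were tested over 48 hours in 96-well plates. GI50 marks 50% less growth.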 Calls of active or inactive are those of the source. No stated cut-off is given here; in the data, active = GI50 up to about 1.1 µM and inactive = higher. Non-standard residues stand in square brackets, D forms with d. Residues, ends and D or L forms follow the SMILES beside them. *: point of attachment. Cbz = O=C(OCc1ccccc1)*; Boc = CC(C)(C)OC(=O)*; Aib = CC(C)(N)C(=O)O; OBn = c1ccc(CO*)cc1; OtBu = CC(C)(C)O*; βAla = NCCC(=O)O
Tests used:
Assay in all cases: inhibition of tumour cell growth, NCI panel, 48 h
[1] = system: 786-0
[2] = system: BT-549
[3] = system: COLO 205
[4] = system: HCT-116
[5] = system: IGROV-1
[6] = system: KM12
[7] = system: LOX IMVI
[8] = system: MCF7
[9] = system: MOLT-4
[10] = system: NCI-H226
[11] = system: NCI-H522
[12] = system: OVCAR-3
[13] = system: OVCAR-5
[14] = system: PC-3
[15] = system: SF-295
[16] = system: SK-MEL-2
[17] = system: SNB-19
[18] = system: TK-10
[19] = system: UO-31
[20] = system: SNB-75

Row | SMILES | GI50 [1] | GI50 [2] | GI50 [3] | GI50 [4] | GI50 [5] | GI50 [6] | GI50 [7] | GI50 [8] | GI50 [9] | GI50 [10] | GI50 [11] | GI50 [12] | GI50 [13] | GI50 [14] | GI50 [15] | GI50 [16] | GI50 [17] | GI50 [18] | GI50 [19] | GI50 [20]
1 | O=C(O)CC(Cc1ccccc1Cl)C(=O)O (stereo not given) | > 100 µM (inactive) | > 100 µM (inactive) | > 100 µM (inactive) | > 100 µM (inactive) | > 100 µM (inactive) | > 100 µM (inactive) | > 100 µM (inactive) | > 100 µM (inactive) | > 100 µM (inactive) | > 100 µM (inactive) | > 100 µM (inactive) | > 100 µM (inactive) | > 100 µM (inactive) | > 100 µM (inactive) | > 100 µM (inactive) | > 100 µM (inactive) | > 100 µM (inactive) | > 100 µM (inactive) | > 100 µM (inactive) | –
2 | COc1ccc(-c2c(C#N)c(O)n(C3OC(CO)C(O)C(O)C3O)c(=S)c2C#N)cc1 (stereo not given) | > 100 µM (inactive) | > 100 µM (inactive) | – | – | > 100 µM (inactive) | > 100 µM (inactive) | > 100 µM (inactive) | > 100 µM (inactive) | > 100 µM (inactive) | > 100 µM (inactive) | > 100 µM (inactive) | > 100 µM (inactive) | > 100 µM (inactive) | > 100 µM (inactive) | > 100 µM (inactive) | > 100 µM (inactive) | > 100 µM (inactive) | > 100 µM (inactive) | > 100 µM (inactive) | > 100 µM (inactive)
3 | CC1=NC(=Cc2cccc(Cl)c2)C(=O)N1n1c(-c2ccccc2)nc2ccccc2c1=O | 48.6 µM (inactive) | 34.7 µM (inactive) | 36.1 µM (inactive) | 36.5 µM (inactive) | 23.2 µM (inactive) | 31.6 µM (inactive) | 25.9 µM (inactive) | 20.4 µM (inactive) | 27.9 µM (inactive) | 90.4 µM (inactive) | 17.5 µM (inactive) | – | – | 31.3 µM (inactive) | 35.7 µM (inactive) | – | 59.2 µM (inactive) | 50.6 µM (inactive) | 39 µM (inactive) | 35.9 µM (inactive)
4 | COc1ccc(C(=O)/C=C/c2cccnc2)cc1OC | 4.51 µM (inactive) | 6.18 µM (inactive) | 10.9 µM (inactive) | 4.36 µM (inactive) | 9.64 µM (inactive) | – | 1.58 µM (inactive) | 3.27 µM (inactive) | 3.33 µM (inactive) | 12.1 µM (inactive) | 1.83 µM (inactive) | 3.4 µM (inactive) | 12.1 µM (inactive) | 14.7 µM (inactive) | 13.4 µM (inactive) | 13.2 µM (inactive) | 14.5 µM (inactive) | 15.7 µM (inactive) | 13.5 µM (inactive) | 11.8 µM (inactive)
5 | O=[N+]([O-])c1cccnc1NCC1(CO)CC(Cc2ccccc2)C1 (stereo not given) | > 100 µM (inactive) | > 100 µM (inactive) | > 100 µM (inactive) | > 100 µM (inactive) | > 100 µM (inactive) | > 100 µM (inactive) | > 100 µM (inactive) | > 100 µM (inactive) | > 100 µM (inactive) | 80.4 µM (inactive) | > 100 µM (inactive) | > 100 µM (inactive) | > 100 µM (inactive) | > 100 µM (inactive) | > 100 µM (inactive) | > 100 µM (inactive) | – | > 100 µM (inactive) | 74 µM (inactive) | > 100 µM (inactive)
6 | NC(=O)CCC(CCC(N)=O)(CCC(N)=O)[N+](=O)[O-] | > 100 µM (inactive) | > 100 µM (inactive) | > 100 µM (inactive) | > 100 µM (inactive) | > 100 µM (inactive) | > 100 µM (inactive) | – | > 100 µM (inactive) | > 100 µM (inactive) | 25.4 µM (inactive) | 65.9 µM (inactive) | – | > 100 µM (inactive) | > 100 µM (inactive) | > 100 µM (inactive) | > 100 µM (inactive) | 60.8 µM (inactive) | > 100 µM (inactive) | > 100 µM (inactive) | > 100 µM (inactive)
7 | CCOC(=O)N/N=C(/N)c1cccc(Br)c1 | > 100 µM (inactive) | > 100 µM (inactive) | > 100 µM (inactive) | > 100 µM (inactive) | > 100 µM (inactive) | > 100 µM (inactive) | > 100 µM (inactive) | > 100 µM (inactive) | > 100 µM (inactive) | – | > 100 µM (inactive) | > 100 µM (inactive) | > 100 µM (inactive) | > 100 µM (inactive) | > 100 µM (inactive) | > 100 µM (inactive) | 78.9 µM (inactive) | > 100 µM (inactive) | 56.1 µM (inactive) | > 100 µM (inactive)
8 | COc1cc(-c2oc3c(OC)cc(OC)c(O)c3c(=O)c2OC)cc(OC)c1OC | 4.02 µM (inactive) | 5.32 µM (inactive) | > 100 µM (inactive) | 4.32 µM (inactive) | 85.5 µM (inactive) | > 100 µM (inactive) | 3.24 µM (inactive) | 97.1 µM (inactive) | > 100 µM (inactive) | > 100 µM (inactive) | 3.38 µM (inactive) | 4.79 µM (inactive) | > 100 µM (inactive) | 9.57 µM (inactive) | 2.59 µM (inactive) | – | 3.82 µM (inactive) | > 100 µM (inactive) | 33 µM (inactive) | 1.73 µM (inactive)
9 | CC[C@@]12C=CC(=S)N(CCSc3ccccc3)[C@@H]1c1c(n(S(=O)(=O)c3ccc(OC)cc3)c3ccccc13)CC2 | > 100 µM (inactive) | > 100 µM (inactive) | > 100 µM (inactive) | > 100 µM (inactive) | – | > 100 µM (inactive) | > 100 µM (inactive) | > 100 µM (inactive) | > 100 µM (inactive) | – | > 100 µM (inactive) | > 100 µM (inactive) | > 100 µM (inactive) | > 100 µM (inactive) | > 100 µM (inactive) | > 100 µM (inactive) | > 100 µM (inactive) | > 100 µM (inactive) | > 100 µM (inactive) | > 100 µM (inactive)
10 | [N-]=[N+]=Nc1cc(=O)n(-c2ccccc2)c(=O)n1-c1ccccc1 | > 100 µM (inactive) | > 100 µM (inactive) | > 100 µM (inactive) | > 100 µM (inactive) | > 100 µM (inactive) | > 100 µM (inactive) | – | > 100 µM (inactive) | > 100 µM (inactive) | > 100 µM (inactive) | > 100 µM (inactive) | > 100 µM (inactive) | > 100 µM (inactive) | > 100 µM (inactive) | > 100 µM (inactive) | > 100 µM (inactive) | > 100 µM (inactive) | > 100 µM (inactive) | > 100 µM (inactive) | > 100 µM (inactive)
11 | O=C(CC(C(=O)c1cccs1)c1ccc2c(c1)OCO2)c1ccccc1 (stereo not given) | > 100 µM (inactive) | > 100 µM (inactive) | > 100 µM (inactive) | 50.5 µM (inactive) | > 100 µM (inactive) | > 100 µM (inactive) | > 100 µM (inactive) | > 100 µM (inactive) | – | > 100 µM (inactive) | > 100 µM (inactive) | > 100 µM (inactive) | – | > 100 µM (inactive) | > 100 µM (inactive) | > 100 µM (inactive) | > 100 µM (inactive) | 19.6 µM (inactive) | > 100 µM (inactive) | > 100 µM (inactive)
12 | COc1cc(C2c3cc4c(cc3OC(NNC(N)=O)C2C)OCO4)cc(OC)c1OC (stereo not given) | 0.185 µM (active) | 2.03 µM (inactive) | 0.0982 µM (active) | 0.13 µM (active) | 0.427 µM (active) | 0.107 µM (active) | 0.145 µM (active) | 0.136 µM (active) | 0.235 µM (active) | 0.205 µM (active) | 0.104 µM (active) | 0.0902 µM (active) | – | 0.183 µM (active) | 0.114 µM (active) | 1.26 µM (inactive) | 0.452 µM (active) | 34.7 µM (inactive) | 1.07 µM (active) | 0.18 µM (active)
13 | CC(C)(C)OC(=O)CC(NC(=O)OC(C)(C)C)C(=O)NC(CCCCNC(=O)OCc1ccccc1)C(=O)NC(C)(C)C(=O)NCCC(=O)OCc1ccccc1 (stereo not given) (Boc-D(OtBu)K(Cbz)[Aib][βAla]-OBn; configuration not given here) | > 100 µM (inactive) | > 100 µM (inactive) | > 100 µM (inactive) | > 100 µM (inactive) | > 100 µM (inactive) | > 100 µM (inactive) | > 100 µM (inactive) | > 100 µM (inactive) | > 100 µM (inactive) | > 100 µM (inactive) | > 100 µM (inactive) | > 100 µM (inactive) | > 100 µM (inactive) | > 100 µM (inactive) | > 100 µM (inactive) | – | > 100 µM (inactive) | > 100 µM (inactive) | > 100 µM (inactive) | > 100 µM (inactive)
14 | C[C@]12CC/C(=N\O)C=C1CC[C@@H]1[C@@H]2CC[C@]2(C)C(=N/O)/C(=C/c3ccc([N+](=O)[O-])cc3)C[C@@H]12 | 6.65 µM (inactive) | 3.05 µM (inactive) | 4.9 µM (inactive) | 3.07 µM (inactive) | 2.86 µM (inactive) | 4.04 µM (inactive) | 5.11 µM (inactive) | 3.59 µM (inactive) | 2.55 µM (inactive) | 12.9 µM (inactive) | 2.59 µM (inactive) | 2.61 µM (inactive) | – | 4.8 µM (inactive) | 3.56 µM (inactive) | 3.91 µM (inactive) | 7.5 µM (inactive) | 6.41 µM (inactive) | 2.67 µM (inactive) | 6 µM (inactive)

Reference: ChEMBL document CHEMBL1201862, “PubChem BioAssay data set” (2004)
